Measured values as given in patent publication US10206907B2, “Compounds useful for the treatment of degenerative and inflammatory diseases” (GALAPAGOS NV, priority 2008, dated 2019).

Assays:
[1] = target: Recombinant human JAK1 catalytic domain (Homo sapiens (Human), UniProt P23458); assay: JAK1 inhibition assay; type: biochemical; conditions: semi-quantitative score
Method in brief: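 Radiometric assay read by scintillation counting after phosphoric-acid washes. Percent inhibition calculated from cpm relative to vehicle and 10 μM staurosporine control. IC50 derived from compound dose-dilution series.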

[2] = target: Recombinant human JAK2 catalytic domain (Homo sapiens (Human), UniProt O60674); assay: JAK2 inhibition assay; type: biochemical; conditions: semi-quantitative score
Protocol: After 90 min at 30° C., reactions were stopped by adding of 25 μL/well of 150 mM phosphoric acid. […] Plates were washed 6 times with 300 μL per well of a 75 mM phosphoric acid solution and the bottom of the plates was sealed. 40 μL/well of Microscint-20 was added, the top of the plates was sealed and readout was performed using the Topcount (Perkin Elmer). Kinase activity was calculated by subtracting counts per minute (cpm) obtained in the presence of a positive control inhibitor (10 μM staurosporine) from cpm obtained in the presence of vehicle. The ability of a test compound to inhibit this activity was determined as: Percentage inhibition=((cpm determined for sample with test compound present−cpm determined for sample with positive control inhibitor) divided by (cpm determined in the presence of vehicle−cpm determined for sample with positive control inhibitor))*100%.
Dose dilution series were prepared for the compounds enabling the testing of dose-response effects in the JAK2 assay and the calculation of the IC50 for each compound.

Sequence of Recombinant human JAK2 catalytic domain (O60674 808-1132): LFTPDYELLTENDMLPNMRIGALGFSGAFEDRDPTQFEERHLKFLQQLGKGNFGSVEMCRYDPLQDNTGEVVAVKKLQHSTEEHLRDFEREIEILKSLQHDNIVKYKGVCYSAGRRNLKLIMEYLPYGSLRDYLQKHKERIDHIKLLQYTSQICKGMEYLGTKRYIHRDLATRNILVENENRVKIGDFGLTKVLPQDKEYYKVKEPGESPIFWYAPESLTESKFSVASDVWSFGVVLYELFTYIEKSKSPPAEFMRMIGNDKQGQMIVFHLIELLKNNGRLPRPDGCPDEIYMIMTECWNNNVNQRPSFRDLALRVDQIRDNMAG
Sequence of Recombinant human JAK1 catalytic domain (P23458 850-1154): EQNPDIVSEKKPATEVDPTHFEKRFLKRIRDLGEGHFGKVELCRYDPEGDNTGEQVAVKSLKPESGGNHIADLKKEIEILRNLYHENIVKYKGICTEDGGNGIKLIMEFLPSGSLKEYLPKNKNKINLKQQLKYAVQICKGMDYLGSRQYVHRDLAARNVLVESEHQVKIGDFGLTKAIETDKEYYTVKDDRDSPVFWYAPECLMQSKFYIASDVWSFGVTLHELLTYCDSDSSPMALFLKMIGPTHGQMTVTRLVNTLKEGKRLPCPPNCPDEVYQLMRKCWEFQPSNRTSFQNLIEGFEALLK

Row | Structure (SMILES) | IC50 [1] | IC50 [2]
1 | CN1CCN(c2ccc(NC(=O)c3ccc(-c4cccc5nc(NC(=O)C6CC6)nn45)cc3)cn2)CC1 [Compound 205, 4-[2-(Cyclopropanecarbonyl-amino)-[1,2,4]triazolo[1,5-a]pyridin-5-yl]-N-[6-(4-methyl-piperazin-1-yl)-pyridin-3-yl]-benzamide] | 101 to 500 nM | 501 to 1000 nM
2 | CC1(C)COCCN1Cc1ccc(-c2cccc3nc(NC(=O)C4CC4)nn23)cc1 [Compound 213, Cyclopropanecarboxylic acid {5-[4-(3,3-dimethyl-morpholin-4-ylmethyl)-phenyl]-[1,2,4]triazolo[1,5-a]pyridin-2-yl}-amide] | 101 to 500 nM | 101 to 500 nM
3 | C[C@@H]1CN(Cc2ccc(-c3cccc4nc(NC(=O)C5CC5)nn34)cc2)C[C@H](C)O1 [Compound 214, Cyclopropanecarboxylic acid {5-[4-((2R,6S)-2,6-dimethyl-morpholin-4-ylmethyl)-phenyl]-[1,2,4]triazolo[1,5-a]pyridin-2-yl}-amide] | 101 to 500 nM | 101 to 500 nM
4 | CC1(C)COCCN1C(=O)c1ccc(-c2cccc3nc(NC(=O)C4CC4)nn23)cc1 [Compound 216, Cyclopropanecarboxylic acid {5-[4-(3,3-dimethyl-morpholine-4-carbonyl)-phenyl]-[1,2,4]triazolo[1,5-a]pyridin-2-yl}-amide] | 101 to 500 nM | 101 to 500 nM
5 | O=C(Nc1nc2cccc(-c3ccc(C(=O)N4C[C@@H]5C[C@H]4CO5)cc3)n2n1)C1CC1 [Compound 217, Cyclopropanecarboxylic acid {5-[4-((1S,4S)-2-oxa-5-aza-bicyclo[2.2.1]heptane-5-carbonyl)-phenyl]-[1,2,4]triazolo[1,5-a]pyridin-2-yl}-amide] | 101 to 500 nM | 501 to 1000 nM
6 | Cn1nc(C2CC2)cc1NC(=O)c1ccc(-c2cccc3nc(NC(=O)C4CC4)nn23)cc1 [Compound 218, 4-[2-(Cyclopropanecarbonyl-amino)-[1,2,4]triazolo[1,5-a]pyridin-5-yl]-N-(5-cyclopropyl-2-methyl-2H-pyrazol-3-yl)-benzamide] | 101 to 500 nM | 101 to 500 nM
7 | O=C(Nc1nc2cccc(-c3ccc(C(=O)N4CCC(C(=O)N5CCOCC5)CC4)cc3)n2n1)C1CC1 [Compound 219, Cyclopropanecarboxylic acid (5-{4-[4-(morpholine-4-carbony)-piperidine-1-carbonyl]-phenyl}-[1,2,4]triazolo[1,5-a]pyridin-2-yl)-amide] | > 1000 nM | > 1000 nM
8 | CC(=O)N1CCN(C(=O)c2ccc(-c3cccc4nc(NC(=O)C5CC5)nn34)cc2)CC1 [Compound 220, Cyclopropanecarboxylic acid {5-[4-(4-acetyl-piperazine-1-carbonyl)-phenyl]-[1,2,4]triazolo[1,5-a]pyridin-2-yl}-amide] | 101 to 500 nM | 501 to 1000 nM
9 | O=C(Nc1nc2cccc(-c3ccc(CN4C[C@@H]5C[C@H]4CO5)cc3)n2n1)C1CC1 [Compound 230, Cyclopropanecarboxylic acid (5-{4-[(1S,4S)-1-(2-oxa-5-aza-bicyclo[2.2.1]hept-5-yl)methyl]-phenyl}-[1,2,4]triazolo[1,5-a]pyridin-2-yl)-amide] | 101 to 500 nM | 101 to 500 nM
10 | O=C(Nc1nc2cccc(-c3ccc(CNc4ccc(N5CCOCC5)nc4)cc3)n2n1)C1CC1 [Compound 237, Cyclopropanecarboxylic acid (5-{4-[(6-morpholin-4-yl-pyridin-3-ylamino)-methyl]-phenyl}-[1,2,4]triazolo[1,5-a]pyridin-2-yl)-amide] | 101 to 500 nM | 501 to 1000 nM
11 | O=C(Nc1nc2cccc(-c3ccc(CN4CCC(O)CC4)cc3)n2n1)C1CC1 [Compound 242, Cyclopropanecarboxylic acid {5-[4-(4-hydroxy-piperidin-1-ylmethyl)-phenyl]-[1,2,4]triazolo[1,5-a]pyridin-2-yl}-amide] | 101 to 500 nM | 501 to 1000 nM
12 | CC(C)(O)C1CCN(Cc2ccc(-c3cccc4nc(NC(=O)C5CC5)nn34)cc2)CC1 [Compound 243, Cyclopropanecarboxylic acid (5-{4-[4-(1-hydroxy-1-methyl-ethyl)-piperidin-1-ylmethyl]-phenyl}-[1,2,4]triazolo[1,5-a]pyridin-2-yl)-amide] | 101 to 500 nM | 501 to 1000 nM
13 | CCN(CC)C1CCN(Cc2ccc(-c3cccc4nc(NC(=O)C5CC5)nn34)cc2)CC1 [Compound 247, Cyclopropanecarboxylic acid {5-[4-(4-diethylamino-piperidin-1-ylmethyl)-phenyl]-[1,2,4]triazolo[1,5-a]pyridin-2-yl}-amide] | > 1000 nM | > 1000 nM
14 | O=C(Nc1nc2cccc(-c3ccc(CNc4cc(C(F)(F)F)ccc4F)cc3)n2n1)C1CC1 [Compound 248, Cyclopropanecarboxylic acid (5-{4-[(2-fluoro-5-trifluoromethyl-phenylamino)-methyl]-phenyl}-[1,2,4]triazolo[1,5-a]pyridin-2-yl)-amide] | 101 to 500 nM | 101 to 500 nM
15 | O=C(Nc1nc2cccc(-c3ccc(CN4CCC(CO)CC4)cc3)n2n1)C1CC1 [Compound 250, Cyclopropanecarboxylic acid {5-[4-(4-hydroxymethyl-piperidin-1-ylmethyl)-phenyl]-[1,2,4]triazolo[1,5-a]pyridin-2-yl}-amide] | 101 to 500 nM | 501 to 1000 nM
16 | O=C(Nc1nc2cccc(-c3ccc(CNc4ccccc4)cc3)n2n1)C1CC1 [Compound 261, Cyclopropanecarboxylic acid [5-(4-phenylaminomethyl-phenyl)-[1,2,4]triazolo[1,5-a]pyridin-2-yl]-amide] | – | 101 to 500 nM
17 | CC(=O)N(C)C1CCN(Cc2ccc(-c3cccc4nc(NC(=O)C5CC5)nn34)cc2)C1 (stereo not shown) [Compound 262, Cyclopropanecarboxylic acid (5-{4-[3-(acetyl-methyl-amino)-pyrrolidin-1-ylmethyl]-phenyl}-[1,2,4]triazolo[1,5-a]pyridin-2-yl)-amide] | – | 101 to 500 nM
18 | CN(C)C1CCN(Cc2ccc(-c3cccc4nc(NC(=O)C5CC5)nn34)cc2)C1 (stereo not shown) [Compound 263] | – | 101 to 500 nM
19 | O=C(Nc1nc2cccc(-c3ccc(CN4CCC(F)(F)C4)cc3)n2n1)C1CC1 [Compound 264, Cyclopropanecarboxylic acid {5-[4-(3,3-difluoro-pyrrolidin-1-ylmethyl)-phenyl]-[1,2,4]triazolo[1,5-a]pyridin-2-yl}-amide] | – | 101 to 500 nM
20 | NC(=O)C1CCN(C(=O)c2ccc(-c3cccc4nc(NC(=O)C5CC5)nn34)cc2)CC1 [Compound 274, 1-{4-[2-(Cyclopropanecarbonyl-amino)-[1,2,4]triazolo[1,5-a]pyridin-5-yl]-benzoyl}-piperidine-4-carboxylic acid amide] | 101 to 500 nM | 501 to 1000 nM
21 | CC(C)(C)OC(=O)NC1CN(Cc2ccc(-c3cccc4nc(NC(=O)C5CC5)nn34)cc2)C1 [Compound 279, (1-{4-[2-(Cyclopropanecarbonyl-amino)-[1,2,4]triazolo[1,5-a]pyridin-5-yl]-benzyl}-azetidin-3-yl)-carbamic acid tert-butyl ester] | 101 to 500 nM | > 1000 nM
22 | CCOC1CCN(Cc2ccc(-c3cccc4nc(NC(=O)C5CC5)nn34)cc2)CC1 [Compound 282, Cyclopropanecarboxylic acid {5-[4-(4-ethoxy-piperidin-1-ylmethyl)-phenyl]-[1,2,4]triazolo[1,5-a]pyridin-2-yl}-amide] | 101 to 500 nM | > 1000 nM
23 | CC(=O)N(C)C1CN(Cc2ccc(-c3cccc4nc(NC(=O)C5CC5)nn34)cc2)C1 [Compound 283, Cyclopropanecarboxylic acid (5-{4-[3-(acetyl-methyl-amino)-azetidin-1-ylmethyl]-phenyl}-[1,2,4]triazolo[1,5-a]pyridin-2-yl)-amide] | > 1000 nM | > 1000 nM
24 | CCN(CC)C1CCN(C(=O)c2ccc(-c3cccc4nc(NC(=O)C5CC5)nn34)cc2)C1 (stereo not shown) [Compound 285, Cyclopropanecarboxylic acid {5-[4-(3-diethylamino-pyrrolidine-1-carbonyl)-phenyl]-[1,2,4]triazolo[1,5-a]pyridin-2-yl}-amide] | 101 to 500 nM | > 1000 nM
25 | O=C(Nc1nc2cccc(-c3ccc(C(=O)N4CCC(O)(c5ccccc5)CC4)cc3)n2n1)C1CC1 [Compound 286, Cyclopropanecarboxylic acid {5-[4-(4-hydroxy-4-phenyl-piperidine-1-carbonyl)-phenyl]-[1,2,4]triazolo[1,5-a]pyridin-2-yl}-amide] | 101 to 500 nM | 501 to 1000 nM
26 | O=C(Nc1nc2cccc(-c3ccc(C(=O)N4CCCC(C(=O)N5CCCCC5)C4)cc3)n2n1)C1CC1 (stereo not shown) [Compound 290, Cyclopropanecarboxylic acid (5-{4-[3-(piperidine-1-carbonyl)-piperidine-1-carbonyl]-phenyl}-[1,2,4]triazolo[1,5-a]pyridin-2-yl)-amide] | 101 to 500 nM | > 1000 nM
27 | CCOC1CCN(C(=O)c2ccc(-c3cccc4nc(NC(=O)C5CC5)nn34)cc2)CC1 [Compound 294, Cyclopropanecarboxylic acid {5-[4-(4-ethoxy-piperidine-1-carbonyl)-phenyl]-[1,2,4]triazolo[1,5-a]pyridin-2-yl}-amide] | 101 to 500 nM | > 1000 nM
28 | CCN(CC)C(=O)C1CCCN(C(=O)c2ccc(-c3cccc4nc(NC(=O)C5CC5)nn34)cc2)C1 (stereo not shown) [Compound 295, 1-{4-[2-(Cyclopropanecarbonyl-amino)-[1,2,4]triazolo[1,5-a]pyridin-5-yl]-benzoyl}-piperidine-3-carboxylic acid diethylamide] | 101 to 500 nM | > 1000 nM
